Laboratory results from patent US20160122758A1, “AGENTS FOR DOWNREGULATION OF THE ACTIVITY AND/OR AMOUNT OF BCL-XL AND/OR BCL-W” (YEDA RESEARCH AND DEVELOPMENT CO. LTD., priority 2013, published 2016).
Residues, ends and D or L forms follow the SMILES beside them. *: point of attachment. Cbz = O=C(OCc1ccccc1)*; CH2F = FC*

How the values were obtained:
[1] = tested on: senescent human (IMR-90) and mouse (MEF) fibroblasts; assay: Viability assay, ABT-737 on senescent and control IMR-90 and MEF fibroblasts; format: cell-based; settings: ABT-737 for 24 hours
Procedure: (§1) Human primary fibroblasts (IMR-90, BJ) were obtained from ATCC MEFs were prepared from day 13.5 embryos. All cultures were maintained in DMEM supplemented with 10% fetal bovine serum (Hyclone). Senescence was induced by treatment with Etoposide ([…], Sigma), or the introduction of oncogenic H-ras^v12 using infections into IMR-90 cells (as described by Narita, 2003).
(§2) Growing and senescent cells were plated in 12-well plates at 7.5×10^4 cells per well. The following day, cells were treated with DMSO control, ABT-737 (Selleckchem, USA) or ABT-199 (ChemieTek, USA) and cell viability was analyzed 24 hours thereafter. 300 μl of PrestoBlue Reagent (Invitrogen, USA) were added to each well, and plates were incubated for 20 minutes at 37 C. 100 μl samples were taken in duplicates to a 96 well plate and read at an OD of 540 nm using a Tecan plate reader (Infinite® M200). A three-hour pre incubation with 100 μM z-VAD-fmk (Santa Cruz, USA) was performed prior to the addition of ABT-737 where indicated.
To further test the hypothesis that an increase in the levels of anti-apoptotic proteins Bcl-w and Bcl-xL could account for the apoptotic resistance of senescent cells by an independent approach, cells were treated with the pharmacological inhibitor of the Bcl-2 family of proteins, ABT-737 (Chauhan et al., 2007). […]

senescent IMR-90 cells = assay: Viability assay, ABT-737 with or without z-VAD-fmk on IMR-90 cells; format: cell-based, human
Procedure: as §1, §2
Members of the Bcl-2 family negatively regulate apoptotic pathway (Azmi et al., 2011; Cory et al., 2003; Reed, 2008). To determine whether ABT-737 kills senescent cells via the apoptotic pathway, DNA damage induced senescent IMR-90 cells, oncogenic H-Ras^v12 induced senescent cells and control growing cells were treated with ABT-737 alone or in combination with pan-caspase inhibitor z-VAD-fmk. […]

cleaved caspase-3 = assay: Immunoblot for cleaved caspase-3 in IMR-90 cells treated with ABT-737 with or without z-VAD-fmk; format: cell-based, human
Procedure: Cells were lysed in RIPA buffer. Equal amounts of protein were separated on 12% SDS-polyacrylamide gels and transferred to PVDF membranes. Detection was performed using the following antibodies: anti-Rb (9313), anti-cleaved parp (9541), anti-cleaved caspase-3 (9661), anti-phospho-p53 (9284), anti-mouse-p53 (2524), anti-phospho-NF-κB (3033), anti-Bcl-2 (2870), anti-Bcl-w (2724) and anti-Bcl-xL (2764) were purchased from Cell Signaling Technology. Anti-human p53 (DO1 and PAb1801). Anti-p16 (sc-759), anti-mouse-p21 (sc-397), anti-NFκB p65 (sc-372) and anti-α-Tubulin (sc-9104) were obtained from Santa Cruz Biotechnology. Anti-human-p21 (556431) was obtained from BD Pharmingen, Anti-Mcl-1 (1239-1) was obtained from Epitomics.
as §2, with “indicated. […]” for “indicated.”

[2] = tested on: Etoposide treated BJ cells; assay: Viability assay after siRNA transfection, senescent BJ cells; format: cell-based, human; settings: Etoposide treated BJ cells with sip21; z-VAD-fmk four days with daily replenishment
Procedure: as §1, §2
ON-TARGETplus SMARTpool small-interfering RNAs targeting p21, Bcl-2, Bcl-w, Bcl-xL and the nontargeting pool siRNAs (control) were transfected into cells with the Dharmafect 1 reagent (all from Dharmacon, Lafayette, Colo., USA). siRNAs were washed away 24 hours post transfection and viability was analyzed four days thereafter as described above. […]

[3] = tested on: Etoposide treated senescent IMR-90 cells; assay: Viability assay after siRNA transfection of Etoposide treated senescent IMR-90 cells; format: cell-based, human; settings: 10 μM ABT-199 for 24 hours, three days post siRNA transfection
Procedure: as §1, §2
ON-TARGETplus SMARTpool small-interfering RNAs targeting p21, Bcl-2, Bcl-w, Bcl-xL and the nontargeting pool siRNAs (control) were transfected into cells with the Dharmafect 1 reagent (all from Dharmacon, Lafayette, Colo., USA). siRNAs were washed away 24 hours post transfection and viability was analyzed four days thereafter as described above.

[4] = tested on: senescent IMR-90 or MEF cells; assay: Viability assay, ABT-199 alone on senescent IMR-90 or MEF cells; format: cell-based, human, mouse; settings: ABT-199 for 24 hours
Procedure: as §1, §2

CN(C)CC[C@H](CSc1ccccc1)Nc1ccc(S(=O)(=O)NC(=O)c2ccc(N3CCN(Cc4ccccc4-c4ccc(Cl)cc4)CC3)cc2)cc1[N+](=O)[O-] [ABT-737]
reduction of viability of senescent cells ([1]; Etoposide or H-Ras^V12 induced senescent IMR-90 and MEF): 50% | effect on viability of control cells ([1]; growing, vehicle treated or vector transduced cells): minor effect | death of senescent cells (senescent IMR-90 cells; ABT-737 alone, 24 hours, DNA damage or H-Ras^v12 induced senescent IMR-90): induced death | caspase-3 cleavage (cleaved caspase-3; senescent IMR-90 cells treated with ABT-737): caspase-3 cleavage

COC(=O)C[C@H](NC(=O)[C@H](C)NC(=O)[C@@H](NC(=O)OCc1ccccc1)C(C)C)C(=O)CF [z-VAD-fmk] (Cbz-Val-Ala-Asp(OMe)-CH2F)
death of senescent cells following ABT-737 treatment, in presence of pan-caspase inhibitor (senescent IMR-90 cells; 100 μM z-VAD-fmk three-hour pre incubation, then ABT-737): prevented death | caspase-3 cleavage after addition of z-VAD-fmk to ABT-737 (cleaved caspase-3; senescent IMR-90 cells, ABT-737 plus z-VAD-fmk): abolished this cleavage | rescue of cell death caused by p21 knockdown [2]: 20%

CC1(C)CCC(CN2CCN(c3ccc(C(=O)NS(=O)(=O)c4ccc(NCC5CCOCC5)c([N+](=O)[O-])c4)c(Oc4cnc5[nH]ccc5c4)c3)CC2)=C(c2ccc(Cl)cc2)C1 [ABT-199]
additive effect of Bcl-2 inhibition on top of Bcl-w and Bcl-xL knockdown on senescent cell viability [3]: statistically significant, but minor additive effect | effect on viability of oncogenic H-ras^v12 induced senescent IMR-90 cells [4]: minor decrease in cell viability | effect on viability of senescent cells, Bcl-2 inhibition alone ([4]; IMR-90 or MEF senescent cells): almost no effect
